Source: US10947242B2, “[1,2,4]triazolo[1,5and#8208;A]pyrimidine compounds as PDE2 inhibitors” (Janssen Pharmaceutica NV, priority 2016, dated 2021)
“And” between values parts separate entries of the source, which are not always exact repeats. Identical values can stand only once. Like-named read-outs stand apart in the source and are kept apart here.

Columns and labels:
[1] = target: T1, Human recombinant PDE2A (hPDE2A) (Homo sapiens, UniProt O00408); assay: In vitro assay PDE2A (SPA, 3H-cGMP hydrolysis); format: biochemical; conditions: for Emax: read-out: hPDE2A Emax; for IC50: read-out: hPDE2A pIC50 (converted)
T1 construct: His tag (inferred from metal chelate purification); made in house; host or cells: Sf9 insect cells (baculovirus)

[2] = target: T2, Human recombinant PDE10A (hPDE10A) (Homo sapiens, UniProt Q9Y233); assay: In vitro assay PDE10A, human clone (SPA, 3H-cAMP hydrolysis); format: biochemical; conditions: human clone (h), default; for Emax: read-out: hPDE10A2 Emax; for IC50: read-out: hPDE10A2 pIC50 (converted)
T2 construct: His tag (inferred from metal chelate purification); made in house; host or cells: Sf9 insect cells (baculovirus)
In short: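 Hydrolysis of 3H-cAMP (60 nM cAMP, 0.008 μCi tracer) proceeded for 60 min at room temperature, with the product detected by SPA bead scintillation counting. The enzyme was hPDE10A from baculovirus-infected Sf9 cells in Tris pH 7.8 buffer with MgCl2 and EGTA, and compounds were at 1% DMSO final. Blanks lacked enzyme.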

PDE2A = target: T3, PDE2A (Rattus norvegicus, UniProt Q01062); assay: PDE2 occupancy by test compounds, ex-vivo autoradiography with [3H]B-17a; format: in vivo, Male Wistar rats; conditions: for receptor occupancy at 10 mg/kg: percentage receptor occupancy, ex-vivo autoradiography, striatum; for ED50: drug dose producing 50% receptor occupancy, read-out: PDE Occupancy ED50
T3 construct: Twenty μm-thick striatal sections were cut; from tissue; host or cells: rat brain, striatal sections
T3 sequence (Q01062 1-928): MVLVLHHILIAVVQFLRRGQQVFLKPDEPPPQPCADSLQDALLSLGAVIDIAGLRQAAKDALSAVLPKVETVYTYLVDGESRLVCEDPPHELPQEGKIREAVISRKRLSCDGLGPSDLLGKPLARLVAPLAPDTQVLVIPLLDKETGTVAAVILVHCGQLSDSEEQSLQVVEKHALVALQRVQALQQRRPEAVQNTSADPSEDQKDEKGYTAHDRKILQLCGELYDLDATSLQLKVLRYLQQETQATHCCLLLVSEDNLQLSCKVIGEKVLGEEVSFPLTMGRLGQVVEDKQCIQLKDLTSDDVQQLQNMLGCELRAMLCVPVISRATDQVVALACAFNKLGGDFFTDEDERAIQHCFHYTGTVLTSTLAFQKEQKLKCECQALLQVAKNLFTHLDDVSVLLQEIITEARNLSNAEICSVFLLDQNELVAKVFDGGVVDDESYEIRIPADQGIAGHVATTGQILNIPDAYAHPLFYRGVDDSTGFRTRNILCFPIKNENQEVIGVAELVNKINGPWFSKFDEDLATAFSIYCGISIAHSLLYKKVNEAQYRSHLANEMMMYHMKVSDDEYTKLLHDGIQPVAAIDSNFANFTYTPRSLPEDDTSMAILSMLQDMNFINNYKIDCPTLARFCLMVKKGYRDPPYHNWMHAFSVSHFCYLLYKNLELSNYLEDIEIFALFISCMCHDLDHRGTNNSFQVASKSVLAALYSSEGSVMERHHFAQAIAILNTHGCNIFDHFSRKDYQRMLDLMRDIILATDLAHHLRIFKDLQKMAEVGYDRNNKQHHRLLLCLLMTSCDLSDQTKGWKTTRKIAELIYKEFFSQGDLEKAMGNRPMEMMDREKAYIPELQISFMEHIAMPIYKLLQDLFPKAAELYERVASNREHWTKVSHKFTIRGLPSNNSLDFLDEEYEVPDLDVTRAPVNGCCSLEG

[3] = target: T4, Human recombinant PDE3A (hPDE3A) (Homo sapiens, UniProt Q14432); assay: In vitro assay PDE3A (SPA, 3H-cAMP hydrolysis); format: biochemical; conditions: for IC50: hPDE3B pIC50, read-out: pIC50 (converted); for Emax: read-out: hPDE3B Emax, read-out: Emax;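 as to all read-outs here: the method names PDE3A and the table heading PDE3B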
T4 construct: purchased Scottish Biomedical; host or cells: Sf9 insect cells
In short: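 Radiometric SPA measuring [3H]-cAMP hydrolysis (0.4 μM cAMP, 2.4 μCi/ml) over 60 min at room temperature, in Tris pH 7.8 buffer with MgCl2 and EGTA, 1% DMSO. Enzyme: recombinant human brain PDE3A expressed in Sf9 cells, used as partially purified lysate. Counts compared with enzyme-free blanks and vehicle controls.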

[4] = human recombinant PDE2A, 10 μM cGMP substrate

T2 sequence (Q9Y233 267-1055): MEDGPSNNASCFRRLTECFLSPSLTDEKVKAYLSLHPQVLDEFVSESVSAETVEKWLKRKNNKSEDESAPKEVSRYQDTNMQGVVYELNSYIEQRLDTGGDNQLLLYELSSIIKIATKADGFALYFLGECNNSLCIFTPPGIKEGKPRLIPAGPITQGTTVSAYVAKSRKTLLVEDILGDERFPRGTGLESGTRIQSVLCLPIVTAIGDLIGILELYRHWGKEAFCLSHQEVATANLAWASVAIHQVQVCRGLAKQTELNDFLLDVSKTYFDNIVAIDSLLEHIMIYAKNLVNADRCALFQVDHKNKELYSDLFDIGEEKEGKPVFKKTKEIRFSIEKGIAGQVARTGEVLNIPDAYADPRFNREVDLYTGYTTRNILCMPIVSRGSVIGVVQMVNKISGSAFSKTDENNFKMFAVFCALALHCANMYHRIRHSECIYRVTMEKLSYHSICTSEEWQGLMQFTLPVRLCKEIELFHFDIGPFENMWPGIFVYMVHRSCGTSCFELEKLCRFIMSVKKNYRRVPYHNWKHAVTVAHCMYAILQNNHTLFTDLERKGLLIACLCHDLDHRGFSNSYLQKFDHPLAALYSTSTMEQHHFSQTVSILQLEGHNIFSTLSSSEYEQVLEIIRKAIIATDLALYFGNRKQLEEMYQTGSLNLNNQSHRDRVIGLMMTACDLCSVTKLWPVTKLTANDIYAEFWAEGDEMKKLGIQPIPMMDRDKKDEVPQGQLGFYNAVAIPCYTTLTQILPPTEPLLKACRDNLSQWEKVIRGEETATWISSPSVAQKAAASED
T1 sequence (O00408 whole entry): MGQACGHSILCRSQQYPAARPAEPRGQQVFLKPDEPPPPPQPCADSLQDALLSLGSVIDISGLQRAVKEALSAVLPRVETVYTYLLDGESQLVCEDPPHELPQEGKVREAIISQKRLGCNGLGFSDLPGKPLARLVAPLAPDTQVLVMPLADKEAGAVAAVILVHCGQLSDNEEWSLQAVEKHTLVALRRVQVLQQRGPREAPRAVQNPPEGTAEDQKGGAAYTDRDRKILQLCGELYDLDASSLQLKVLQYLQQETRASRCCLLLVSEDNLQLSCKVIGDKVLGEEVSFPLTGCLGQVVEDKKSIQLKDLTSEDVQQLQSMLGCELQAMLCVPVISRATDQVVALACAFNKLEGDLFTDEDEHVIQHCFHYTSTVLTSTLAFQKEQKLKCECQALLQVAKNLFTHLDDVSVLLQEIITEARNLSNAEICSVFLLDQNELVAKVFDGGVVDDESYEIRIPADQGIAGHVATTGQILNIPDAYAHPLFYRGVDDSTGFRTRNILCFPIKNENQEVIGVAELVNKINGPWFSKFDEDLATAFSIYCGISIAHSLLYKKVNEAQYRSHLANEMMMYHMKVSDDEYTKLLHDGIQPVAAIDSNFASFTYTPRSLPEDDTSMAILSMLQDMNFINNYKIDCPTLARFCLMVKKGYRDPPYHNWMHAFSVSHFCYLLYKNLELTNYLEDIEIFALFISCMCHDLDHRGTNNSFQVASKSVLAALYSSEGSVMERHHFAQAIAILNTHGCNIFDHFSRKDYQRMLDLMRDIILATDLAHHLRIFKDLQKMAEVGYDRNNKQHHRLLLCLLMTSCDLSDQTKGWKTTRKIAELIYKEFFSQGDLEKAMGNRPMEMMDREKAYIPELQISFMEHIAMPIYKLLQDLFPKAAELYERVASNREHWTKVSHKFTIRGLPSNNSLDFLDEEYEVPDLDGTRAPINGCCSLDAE
T4 sequence (Q14432 whole entry): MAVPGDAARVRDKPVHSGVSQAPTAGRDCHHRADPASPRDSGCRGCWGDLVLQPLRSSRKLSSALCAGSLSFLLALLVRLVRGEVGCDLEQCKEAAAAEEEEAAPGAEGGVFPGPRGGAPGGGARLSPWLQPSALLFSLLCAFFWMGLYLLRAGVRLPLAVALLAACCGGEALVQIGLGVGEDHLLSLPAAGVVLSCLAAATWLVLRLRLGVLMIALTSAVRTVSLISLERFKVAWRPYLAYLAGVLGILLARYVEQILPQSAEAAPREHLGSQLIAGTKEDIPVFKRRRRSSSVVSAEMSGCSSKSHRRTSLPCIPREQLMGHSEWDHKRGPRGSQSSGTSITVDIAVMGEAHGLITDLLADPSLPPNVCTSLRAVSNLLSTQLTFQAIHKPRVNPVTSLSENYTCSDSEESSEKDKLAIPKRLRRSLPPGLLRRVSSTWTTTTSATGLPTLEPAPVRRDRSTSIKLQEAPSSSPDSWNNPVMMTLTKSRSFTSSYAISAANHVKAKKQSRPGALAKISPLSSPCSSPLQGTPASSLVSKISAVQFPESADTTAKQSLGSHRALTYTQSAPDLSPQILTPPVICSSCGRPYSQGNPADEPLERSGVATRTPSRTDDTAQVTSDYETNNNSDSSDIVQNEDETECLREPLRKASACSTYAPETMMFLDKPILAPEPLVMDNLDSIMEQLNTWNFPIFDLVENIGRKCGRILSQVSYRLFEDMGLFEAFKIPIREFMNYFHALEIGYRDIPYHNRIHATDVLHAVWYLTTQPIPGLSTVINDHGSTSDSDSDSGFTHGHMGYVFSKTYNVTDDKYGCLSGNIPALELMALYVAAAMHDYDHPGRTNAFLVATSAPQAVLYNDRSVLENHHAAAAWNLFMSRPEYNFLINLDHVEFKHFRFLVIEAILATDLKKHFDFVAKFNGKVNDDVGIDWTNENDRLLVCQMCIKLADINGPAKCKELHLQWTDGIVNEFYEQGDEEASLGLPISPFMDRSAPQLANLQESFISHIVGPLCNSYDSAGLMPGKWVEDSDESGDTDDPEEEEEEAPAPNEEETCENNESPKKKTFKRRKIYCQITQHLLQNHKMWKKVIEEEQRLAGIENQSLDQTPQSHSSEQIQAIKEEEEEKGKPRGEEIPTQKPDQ

SMILES | Emax [1] | IC50 [1] | Emax [2] | IC50 [2] | receptor occupancy at 10 mg/kg (PDE2A; po, route PO (oral)) | ED50 (PDE2A; route PO (oral)) | IC50 [3] | Emax [3] | IC50 [1, 4] | Emax ([1]; human recombinant PDE2A) | receptor occupancy at 10 mg/kg (PDE2A; sc, route SC (subcutaneous)) | hPDE10A2 Emax [2]
COc1cc(C(=O)N2CC[C@@H](C)[C@H](c3cc(C(F)F)nc4ncnn34)C2)c(F)cn1 [Compound 36] | 100% | 2.75 nM | 93% | 468 nM | 32% | 45.2 mg/kg | 3980 nM | 64% |  |  |  | 
COc1cc(C(=O)N2CC[C@@H](C)[C@H](c3cc(C)nc4ncnn34)C2)c(C(F)(F)F)cn1 [Compound 37] | 100% | 17.4 nM | 93% | 427 nM | -13% |  | 8910 nM | 52% |  |  |  | 
COc1nc(N)ncc1C(=O)N1CC[C@@H](C)[C@H](c2cc(C(F)F)nc3ncnn23)C1 [Compound 38] | 100% | 6.17 nM | 80% | 2290 nM | 1% |  | > 10000 nM | 43% | 6.17 nM | 100% |  | 
C[C@@H]1CCN(C(=O)c2cc(Cl)cnc2C(F)(F)F)C[C@H]1c1cc(C(F)F)nc2ncnn12 [Compound 39] | 98% | 8.32 nM | 75% | 3090 nM | -8% |  | > 10000 nM | 16% | 8.32 nM | 98% |  | 
Cc1cc(C(=O)N2CC[C@@H](C)[C@H](c3cc(C(F)F)nc4ncnn34)C2)c(C(F)(F)F)cn1 [Compound 41] | 99% | 13.8 nM | 72% | 4170 nM | 8% |  | > 10000 nM | 17% | 13.8 nM | 99% |  | 
C[C@@H]1CCN(C(=O)c2ccnc(Cl)c2)C[C@H]1c1cc(C(F)F)nc2ncnn12 [Compound 42] | 100% | 1.15 nM | 95% | 316 nM | 54% |  | > 10000 nM | 48% | 1.15 nM | 100% |  | 
C[C@@H]1CCN(C(=O)c2cc(Cl)ncc2Cl)C[C@H]1c1cc(C(F)F)nc2ncnn12 [Compound 43] | 99% | 5.01 nM | 88% | 1320 nM | 2% |  | > 10000 nM | 29% | 5.01 nM | 99% |  | 
C[C@@H]1CCN(C(=O)c2cnc(Cl)c(Cl)c2)C[C@H]1c1cc(C(F)F)nc2ncnn12 [Compound 64] | 99% | 1.58 nM | 96% | 355 nM | 7% |  | 6760 nM | 62% | 1.58 nM | 99% |  | 
COc1ncc(C(=O)N2CC[C@@H](C)[C@H](c3cc(C(F)F)nc4ncnn34)C2)cc1C1CC1 [Compound 73] | 101% | 1.95 nM | 98% | 219 nM | 0% |  | 2630 nM | 83% | 1.95 nM | 101% |  | 
COc1c(C)cc(C(=O)N2CC[C@@H](C)[C@](F)(c3cc(C(F)F)nc4ncnn34)C2)cc1C [Compound 74] | 101% | 30.2 nM | 36% | > 10000 nM |  |  | > 10000 nM | 30% | 30.2 nM | 101% | 14% | 

Further lines, results first:

Emax [1] | IC50 [1] | Emax [2] | IC50 [2] | receptor occupancy at 10 mg/kg (PDE2A; po, route PO (oral)) | ED50 (PDE2A; route PO (oral)) | IC50 [3] | Emax [3] | IC50 [1, 4] | Emax ([1]; human recombinant PDE2A) | receptor occupancy at 10 mg/kg (PDE2A; sc, route SC (subcutaneous)) | hPDE10A2 Emax [2] | SMILES
99% | 2.51 nM | 92% | 646 nM | 5% |  | 3390 nM | 80% | 2.51 nM | 99% |  |  | C[C@@H]1CCN(C(=O)c2nc3ccccc3o2)C[C@H]1c1cc(C(F)F)nc2ncnn12 [Compound 47]
100% | 0.174 nM | 100% | 43.7 nM |  |  | 87.1 nM | 99% | 0.174 nM | 100% | 96% |  | Cc1c(C(=O)N2CC[C@@H](C)[C@H](c3cc(C(F)F)nc4ncnn34)C2)oc2ccccc12 [Compound 48]
100% | 3.09 nM | 93% | 724 nM | -30% |  | > 10000 nM | 61% | 3.09 nM | 100% |  |  | Cc1nc2cccc(C(=O)N3CC[C@@H](C)[C@H](c4cc(C(F)F)nc5ncnn45)C3)c2o1 [Compound 50]
101% | 5.5 nM | 86% | 1260 nM | 20% |  | > 10000 nM | 44% | 5.5 nM | 101% |  |  | Cc1cc(C(=O)N2CC[C@@H](C)[C@H](c3cc(C(F)F)nc4ncnn34)C2)c(Cl)cn1 [Compound 51]
100% | 5.62 nM | 89% | 776 nM | 22% |  | 6760 nM | 62% | 5.62 nM | 100% |  |  | COc1cc(C(=O)N2CC[C@@H](C)[C@H](c3cc(C(F)F)nc4ncnn34)C2)c(C)cn1 [Compound 53]
100% | 4.17 nM | 89% | 661 nM | 39% |  | 9550 nM | 51% | 4.17 nM | 100% |  |  | C[C@@H]1CCN(C(=O)c2cc(Cl)ncc2F)C[C@H]1c1cc(C(F)F)nc2ncnn12 [Compound 54]
100% | 0.851 nM | 97% | 151 nM | 32% |  | 1100 nM | 92% | 0.851 nM | 100% |  |  | Cc1ccc2cc(C(=O)N3CC[C@@H](C)[C@H](c4cc(C(F)F)nc5ncnn45)C3)c(C)nc2c1 [Compound 60]
99% | 17.4 nM | 79% | 2290 nM | -14% |  | > 10000 nM | 48% | 17.4 nM | 99% |  |  | COc1ccc(C(=O)N2CC[C@@H](C)[C@H](c3cc(C(F)F)nc4ncnn34)C2)nc1 [Compound 66]
99% | 6.31 nM | 85% | 1380 nM |  |  |  | 50% | 6.31 nM | 99% | 31% |  | Cc1nccc(C(=O)N2CC[C@@H](C)[C@H](c3cc(C(F)F)nc4ncnn34)C2)c1F [Compound 68]
102% | 1.95 nM | 93% | 331 nM and 380 nM |  | 6.4 mg/kg | 5130 nM | 66% | 1.74 nM | 102% | 65% | 95 | Cc1cc(C(=O)N2CC[C@@H](C)[C@H](c3cc(C(F)F)nc4ncnn34)C2)c(F)c(C)n1 [Compound 70]
98% | 1.86 nM | 94% | 339 nM |  |  | > 1000 nM | 32% | 1.86 nM | 98% | 49% |  | C[C@@H]1CCN(C(=O)c2cc(Cl)nc(Cl)c2F)C[C@H]1c1cc(C(F)F)nc2ncnn12 [Compound 71]
